Measurements taken from patent US11304944B2, “MetAP2 inhibitors and methods of treating obesity” (SynDevRx, Inc., priority 2013, dated 2022).

What was measured:
DIO Levin rats = experiment: In vivo testing DIO Levin rats: weight changes, food consumption, insulin, leptin levels; settings: for Final BW: after 68 days, 60% fat diet
Experimental: CKD-732 as referred to herein is the hemitartrate salt of the following structure:
Test articles were administered subcutaneously on an every 4 day (q4d) schedule in a diet-induced obesity (DIO) Levin-DS rat model. […] A dietary intervention (Standard Chow, Labdiet 5001; 3.4 kcal/g) was included to compare to the drug interventions. Upon arrival at three weeks of age, the male rats received ad libitum pellets of Harlan Diet TD.06414, 60% of calories from fat, 21% of calories from carbohydrate; 5.1 kcal/g. Prior to dosing the rats were randomized into groups of three animals with an average body weight of 595 gm. […] Compound 1 in the form of the hemitartrate and CKD-732 in the form of the hemitartrate were dissolved in ethanol prior to dilution with vehicle. All doses were administered at a volume of 5.0 ml/kg. […] On day 1, first dose, the rats were 14 weeks of age. Also on day 1, Group 2 was switched from the high fat diet to a standard chow diet; the remaining groups were maintained on a high fat diet for the duration of the study.
Animals were weighed every other day. Food consumption was measured weekly. On an approximately weekly basis throughout the study, blood samples were taken for assessment of serum chemistries including glucose and insulin. On Day 48 all rats underwent a 4 hour fasted Oral Glucose Tolerance Test (OGTT). Animals were dosed orally (per os, PO) at 8 mL/kg 25% glucose (2 g/kg). On day 68, gross pathology was performed to determine body composition.

DIO C57Bl6 mice = experiment: In vivo testing DIO C57Bl6 mice: weight changes, food consumption, body composition (Compound 16 vs TNP-470); settings: for Body Weight Day 33: sc; for Total fat as a percentage of BW / B.W. / Epididymal Fat / Inguinal Fat / Liver / Retroperitoneal Fat / Total Fat: Day 33
Experimental: C57Bl6 male mice (N=6) thirteen weeks old with an average of weight of 34 g were ad libitum fed TD.06414 a high fat diet composed of 60% Kcal from fat (Harlan diet). On study day 1 animals were randomized into groups so that the average weight of each group was 33.9 g. […] Animals were weighed every other day. Food consumption was measured weekly. On day 33 gross pathology was performed to determine body composition.

poly[HPMA-co-MA-GFLG-N-(trans-4-aminocyclohexyl)carbamoylfumagillol] [Compound 16]
Group Average Food Consumption Day 31-36 (DIO Levin rats; 3 mg/kg q4d sc): 102.6 g | Group Average Food Consumption Day 37-43 (DIO Levin rats; 3 mg/kg q4d sc): 105.5 g | Group Average Food Consumption Day 44-50 (DIO Levin rats; 3 mg/kg q4d sc): 129.9 g | Group Average Food Consumption Day 51-57 (DIO Levin rats; 3 mg/kg q4d sc): 115.2 g | Group Average Food Consumption Day 58-63 (DIO Levin rats; 3 mg/kg q4d sc): 128.0 g | Group Average Food Consumption Day 63-68 (DIO Levin rats; 3 mg/kg q4d sc): 43.3 g | Leptin Levels Day 29 (DIO Levin rats; 3 mg/kg q4d sc): 1.36 | Leptin Levels Pre-dose (DIO Levin rats; 3 mg/kg q4d sc): 2.47 | Leptin Levels, Day 29, % Change from Baseline (DIO Levin rats; 3 mg/kg q4d sc): −45.0% | Final BW (DIO Levin rats; 3.0 mg/kg q4d sc): 604.7 g | Avg. Insulin Day 7 (DIO Levin rats; 6 mg, q7d sc): 1.96 ng/mL | Avg. Insulin Day 15 (DIO Levin rats; 6 mg, q7d sc): 1.00 ng/mL | Avg. Insulin Day 23 (DIO Levin rats; 6 mg, q7d sc): 1.11 ng/mL | Avg. Insulin Day 48 (DIO Levin rats; 6 mg, q7d sc): 1.32 ng/mL | Avg. Insulin Pre-dosing (DIO Levin rats; 6 mg, q7d sc): 3.06 ng/mL | Group Average Food Consumption Day 1-8 (DIO Levin rats; 6 mg, q7d sc): 105.2 g | Group Average Food Consumption Day 9-15 (DIO Levin rats; 6 mg, q7d sc): 48.3 g | Group Average Food Consumption Day 16-23 (DIO Levin rats; 6 mg, q7d sc): 43.9 g | Group Average Food Consumption Day 24-30 (DIO Levin rats; 6 mg, q7d sc): 139.8 g | Group Average Food Consumption Day 31-36 (DIO Levin rats; 6 mg, q7d sc): 117.4 g | Group Average Food Consumption Day 37-43 (DIO Levin rats; 6 mg, q7d sc): 126.3 g | Group Average Food Consumption Day 44-50 (DIO Levin rats; 6 mg, q7d sc): 81.2 g | Group Average Food Consumption Day 51-57 (DIO Levin rats; 6 mg, q7d sc): 107.5 g | Group Average Food Consumption Day 58-63 (DIO Levin rats; 6 mg, q7d sc): 107.7 g | Group Average Food Consumption Day 63-68 (DIO Levin rats; 6 mg, q7d sc): 19.8 g | Leptin Levels Day 29 (DIO Levin rats; 6 mg, q7d sc): 2.00 | Leptin Levels Pre-dose (DIO Levin rats; 6 mg, q7d sc): 3.93 | Leptin Levels, Day 29, % Change from Baseline (DIO Levin rats; 6 mg, q7d sc): −49.2% | Final BW (DIO Levin rats; 6.0 mg/kg q7d sc): 596.7 g | change in leptin levels from baseline versus dose (DIO Levin rats; FIG. 18): dose-dependent response | weight loss versus fumagillol exposure, compared to Compound 1 or CKD-732 (DIO Levin rats; day 68, FIG. 12): greater weight loss with significantly lower fumagillol exposure | Body Weight Day 33 (DIO C57Bl6 mice; 0.5 mg/kg/day, qod): 30.4 g | Total fat as a percentage of BW (DIO C57Bl6 mice; 1 mg/kg qod): 8.2% | Body Weight Day 33 (DIO C57Bl6 mice; 1.5 mg/kg/day, q4d): 27.4 g | B.W. (DIO C57Bl6 mice; 6 mg/kg q4d): 27.4 grams | Epididymal Fat (DIO C57Bl6 mice; 6 mg/kg q4d): 0.78 grams | Inguinal Fat (DIO C57Bl6 mice; 6 mg/kg q4d): 0.53 grams | Liver (DIO C57Bl6 mice; 6 mg/kg q4d): 1.17 grams | Retroperitoneal Fat (DIO C57Bl6 mice; 6 mg/kg q4d): 0.23 grams | Total Fat (DIO C57Bl6 mice; 6 mg/kg q4d): 1.55 grams | Total fat as a percentage of BW (DIO C57Bl6 mice; 6 mg/kg q4d): 5.6% | degree of weight loss compared with TNP-470 (DIO C57Bl6 mice; FIG. 1): superior to TNP-470 in the degree of weight loss | food consumption compared with TNP-470 (DIO C57Bl6 mice; FIG. 2): causes a greater reduction in food consumption than TNP-470 | decrease in weight (DIO C57Bl6 mice; q4d dosing regimen (FIG. 1)): 19% | B.W. (DIO C57Bl6 mice; qod (Cmpd 16 1 mg/kg qod)): 30.4 grams | Epididymal Fat (DIO C57Bl6 mice; qod (Cmpd 16 1 mg/kg qod)): 1.18 grams | Inguinal Fat (DIO C57Bl6 mice; qod (Cmpd 16 1 mg/kg qod)): 0.92 grams | Liver (DIO C57Bl6 mice; qod (Cmpd 16 1 mg/kg qod)): 1.10 grams | Retroperitoneal Fat (DIO C57Bl6 mice; qod (Cmpd 16 1 mg/kg qod)): 0.42 grams | Total Fat (DIO C57Bl6 mice; qod (Cmpd 16 1 mg/kg qod)): 2.52 grams
